# Patent US7892764B2, “System for seizure suppression” (priority 2006, dated 2011)
# Assays:
# mouse hippocampal slices [1] = experiment: Low Mg2+-induced epileptiform bursting activity (evoked and spontaneous) in hippocampal slices; format: cell-based; conditions: Mg2+-free aCSF; for frequency of spontaneous clustered bursts / frequency of spontaneous clustered bursts relative to control: bath perfusion
# Protocol: Limbic seizures (Avoli et al., 2002) are modeled by removing Mg^2+ from artificial cerebral spinal fluid (aCSF) in slices of hippocampal-entorhinal cortex, which triggers interictal-like bursting activity, or spontaneous ictal-like events (Wong et al., 2001; Anderson et al., 1986). In the presence of normal Mg^2+ (1.5 mM), stimulation of Schaffer collaterals induces single population spike or EPSP in the CA1 region of the hippocampus. […] Perfusion with Mg^2+-free aCSF for about 30 min evoked synchronous burst firing with the same stimulation intensity. In about, 30% of the slices, spontaneous clustered bursts developed in the absence of electrical stimulation. Bath perfusion of amiloride or PcTX1 for 10 min reduced the amplitude and frequency of evoked bursting activity (FIGS. 5A and 5B). Amiloride (100 μM) reduced the amplitude of the first and the second population spikes (from 1.2±0.2 mV to 0.5±0.2 mV and 0.6±0.03 mV to 0.2±0.05 mV, respectively (n=9: p<0.01, FIGS. 5A and 5B), and the number of population spikes (from 4.7±0.6 to 3.3±0.8, n=9, p<0.05)). Similarly, PcTX1 (200 ng/mL) attenuated the amplitude of the population spike (from 2.1±0.3 to 1.6±0.2 mV, n=9, p<0.05) and the number of spikes (from 4.2±0.6 to 3.0±0.6, p<0.05).
# (§1) Preparation of hippocampal slices and brain slice recording. Hippocampal slices were obtained from 8- to 10-week-old mice. The protocol for brain-slice recording was approved by the Institutional Animal Care and Use Committee of Legacy Research. Animals were deeply anesthetized with isoflurane and decapitated. Brains were quickly removed and placed in ice-cold solution that contained: 125 mM sucrose, 2.5 mM KCl, 26 mM NaHCO3, 1.25 mM NaHPO4, 6.0 mM […], 0.5 mM CaCl2, and 10 mM glucose, and was saturated with 95% O2 and 5% CO2 (pH 7.4). Hippocamnpal slices were cut in 400 μm thickness in transverse plane with a vibratome (Leica VT 1000S) and placed in a slice holding chamber (BSC-PC Prechamber, Warner Instrument) and incubated in normal artificial cerebral spinal fluid (aCSF) that contained: 125 mM NaCl, 2.5 mM KCl, 26 mM NaHCO3, 1.25 mM […], 1.0 mM MgSO4, 2.0 mM CaCl2, and 10 mM glucose, and was saturated with 95% O2 and 5% CO2 (pH 7.4).
# (§2) Following ˜60 min of incubation at room temperature, individual slices were transferred to a submerged slice chamber with a volume of 0.5 mL (Warner Instruments, Hamden, Conn.) and perfused with oxygenated aCSF (35° C.) at a rate of 3-4 mL/min. Recording electrodes were pulled from borosilicate glass and filled with aCSF. The population spike and the field excitatory postsynaptic potentials (fEPSP) were recorded in stratum pyramidale and striatum radiatum of hippocampal CA1 region, by stimulating Schaffer Collaterals.
# (§3) For low Mg^2+ induced epileptic burst activity, Mg^2+-free aCSF was perfused to the slices for ˜30 min. For stimulus-train induced bursting discharges (STIB), each stimulation train consisted of 120 pulses at 60 Hz and each pulse was 100 μsec in duration (Stasheff et al., 1985). A 10-minute interval of non-stimulation was provided between successive trains of high frequency stimulation. Stimulation electrodes were located in striatum radiatum between CA1 and CA3 region. The population spikes were recorded from striatum pyramidale of the CA3 region.
# Pharmacological and electrical bursting models. To induce epileptic burst discharges, Mg^2+-free aCSF was applied. Mg^2+-free aCSF was obtained by simply omitting MgSO4 from aCSF.
# mouse hippocampal slices [2] = experiment: Stimulus train-induced after-discharges in hippocampal slices; format: cell-based
# Protocol: ASIC blockade on seizure-like bursting activity induced by high frequency stimulus trains, e.g., after-discharges (Stasheff et al., 1985), was determined as high frequency electric stimulation generates epileptic bursting without disrupting the balance of excitation versus inhibition thus more closely mimicking epileptogenesis in vivo (Stasheff et al., 1985). Following approximately five trains of stimulation, relatively stable after-discharges were recorded (FIGS. 7A-7E). Amiloride bath perfusion reduced after-discharge duration by about 80% (from 21.0±3.5 sec to 4.7±2.4 sec, n=3; p<0.05) and burst firing frequency by about 90% (from 2.8±0.4 Hz to 0.3±0.1 Hz, n=3, p<0.05, FIG. 7A). Similarly, PcTX1 reduced after-discharge duration from 29.3±8.5 to 11.5±4.1 sec (reduced to 0.44±0.10 of control, n=4, p<0.05) and burst firing frequency from 0.9±0.1 to 0.5±0.2 Hz (reduced to 0.5±0.1 of control, n=4, p<0.05, FIG. 7B). Similar to ASIC1a blockade, seizure activity was attenuated in hippocampal slices from ASIC1^−/− mice (Xiong et al., 2004) (FIGS. 7C-7E). In wild-type (WT) mice, five sets of stimulus trains generated bursting activity with a duration of 13.9±2.0 sec and a firing frequency of 1.6±0.2 Hz, whereas in slices from ASIC1^−/− mice, identical stimulations generated after-discharges of only 5.8±3.3 sec duration and 0.4±0.2 Hz frequency (n=9 for both groups, p<0.05 for difference in duration and p<0.01 for frequency, FIG. 7E).
# as §1, §2, §3
# [3] = 100 μM amiloride, bath perfusion 10 min, evoked
# [4] = 100 μM amiloride bath perfusion
# [5] = PcTX1 200 ng/mL, bath perfusion 10 min, evoked
Compound,amplitude of the first population spike (mouse hippocampal slices [1]; [3]) [mV],amplitude of the second population spike (mouse hippocampal slices [1]; [3]) [mV],number of population spikes (mouse hippocampal slices [1]; [3]),frequency of spontaneous clustered bursts (mouse hippocampal slices [1]) [min⁻¹],frequency of spontaneous clustered bursts relative to control (mouse hippocampal slices [1]),after-discharge duration (mouse hippocampal slices [2]; [4]) [s],burst firing frequency (mouse hippocampal slices [2]; [4]) [Hz],reduction of after-discharge duration (mouse hippocampal slices [2]; [4]),reduction of burst firing frequency (mouse hippocampal slices [2]; [4]),amplitude of the population spike (mouse hippocampal slices [1]; [5]) [mV],number of spikes (mouse hippocampal slices [1]; [5]),after-discharge duration (mouse hippocampal slices [2]; 200 ng/mL PcTX1) [s],after-discharge duration relative to control (mouse hippocampal slices [2]; 200 ng/mL PcTX1),burst firing frequency (mouse hippocampal slices [2]; 200 ng/mL PcTX1) [Hz],burst firing frequency relative to control (mouse hippocampal slices [2]; 200 ng/mL PcTX1)
"NC(N)=NC(=O)c1nc(Cl)c(N)nc1N [amiloride, 3,5-diamino-6-chloro-N(diaminomethylidene)pyrazine-2-carboxamide]",0.5±0.2,0.2±0.05,3.3±0.8,26.0 ± 5.8,0.84±0.05 of control,4.7 ± 2.4,0.3±0.1,about 80%,about 90%,,,,,,
Psalmotoxin 1 [PcTX1],,,,59.9 ± 11.3,0.68±0.07 of control,,,,,1.6±0.2,3.0±0.6,11.5 ± 4.1,0.44±0.10 of control,0.5±0.2,0.5±0.1 of control
